PubChem BioAssay AID330 (DTP/NCI, 2004)
Values joined by “and” are separate entries in the source; they are usually repeats but may differ in a detail not shown here. Equal entries are not always repeated. Inconclusive results and toxic doses are left out.

System: P388 leukemia ip, CD2F1 mice, survival T/C
Experiment: NCI In Vivo Anticancer Drug Screen. Data for tumor model P388 Leukemia (intraperitoneal) in CD2F1 (CDF1) mice
Details: endpoint: median survival time, higher = longer survival
Description: The antitumor activity of compounds was measured in mice bearing transplantable tumors. Survival or tumor size were measured and the results are expressed as the measurement made in the treated group (T) divided by the measurement made in the vehicle treated control group (C). The tumor model used in this assay is P388 Leukemia (intraperitoneal) in CD2F1 (CDF1) mice

[1] = dose: 60.0 mg/kg/injection, schedule: Q01DX005 (ip), vehicle: saline
[2] = dose: 120.0 mg/kg/injection, schedule: Q01DX005 (ip), vehicle: saline
[3] = dose: 25.0 mg/kg/injection, schedule: Q04DX003 (ip), vehicle: saline with Tween-80
[4] = dose: 50.0 mg/kg/injection, schedule: Q04DX003 (ip), vehicle: saline with Tween-80
[5] = dose: 100.0 mg/kg/injection, schedule: Q04DX003 (ip), vehicle: saline with Tween-80
[6] = dose: 100.0 mg/kg/injection, schedule: Q01DX001 (ip), vehicle: saline with Tween-80
[7] = dose: 200.0 mg/kg/injection, schedule: Q01DX001 (ip), vehicle: saline with Tween-80
[8] = dose: 400.0 mg/kg/injection, schedule: Q01DX001 (ip), vehicle: saline with Tween-80
[9] = dose: 100.0 mg/kg/injection, schedule: Q01DX005 (ip), vehicle: saline with Tween-80
[10] = dose: 200.0 mg/kg/injection, schedule: Q01DX005 (ip), vehicle: saline with Tween-80
[11] = dose: 60.0 mg/kg/injection, schedule: Q01DX005 (ip), vehicle: saline with Tween-80
[12] = dose: 120.0 mg/kg/injection, schedule: Q01DX005 (ip), vehicle: saline with Tween-80
[13] = dose: 240.0 mg/kg/injection, schedule: Q01DX005 (ip), vehicle: saline with Tween-80
[14] = dose: 50.0 mg/kg/injection, schedule: Q01DX005 (ip), vehicle: saline with Tween-80
[15] = dose: 50.0 mg/kg/injection, schedule: Q01DX009 (ip), vehicle: Klucel (hydroxypropylcellulose) (HPC)
[16] = dose: 100.0 mg/kg/injection, schedule: Q01DX009 (ip), vehicle: Klucel (hydroxypropylcellulose) (HPC)
[17] = dose: 200.0 mg/kg/injection, schedule: Q01DX009 (ip), vehicle: Klucel (hydroxypropylcellulose) (HPC)
[18] = dose: 12.5 mg/kg/injection, schedule: Q01DX009 (ip), vehicle: Klucel (hydroxypropylcellulose) (HPC)
[19] = dose: 25.0 mg/kg/injection, schedule: Q01DX009 (ip), vehicle: Klucel (hydroxypropylcellulose) (HPC)
[20] = dose: 200.0 mg/kg/injection, schedule: Q04DX003 (ip), vehicle: saline with Tween-80

## COc1ccc(C2C3=C(CCC(CN(C)C)C3=O)OC3=C2C(=O)C(CN(C)C)CC3)cc1 (configuration not stated)
[1]
  T/C: 102 % of control
[2]
  T/C: 102 % of control

## Cc1nc2c([N+](=O)[O-])c(Nc3ccccc3)c([N+](=O)[O-])cc2[nH]1
[3]
  T/C: 92 % of control
[4]
  T/C: 101 % of control
[5]
  T/C: 104 % of control and 90 % of control

## CCOC(=O)C/C(=N\Nc1ccc([N+](=O)[O-])cc1[N+](=O)[O-])c1ccccc1
[6]
  T/C: 100 % of control
[7]
  T/C: 100 % of control
[8]
  T/C: 100 % of control

## O=C(c1cc(Nc2ccnc3cc(Cl)ccc23)ccc1O)N1CCCCC1
[9]
  T/C: 120 % of control
[10]
  T/C: 121 % of control

## O=C1CC(c2cccc(S(=O)(=O)O)c2)=NN1c1ccc([N+](=O)[O-])cn1
dose: 100.0 mg/kg/injection, schedule: Q04DX003 (ip), vehicle: saline
  T/C: 108 % of control
dose: 200.0 mg/kg/injection, schedule: Q04DX003 (ip), vehicle: saline
  T/C: 100 % of control
dose: 400.0 mg/kg/injection, schedule: Q04DX003 (ip), vehicle: saline
  T/C: 106 % of control

## FC(F)(F)c1ccc2[nH]c3c(c2c1)CCCC3
[6]
  T/C: 102 % of control
[7]
  T/C: 102 % of control
[8]
  T/C: 103 % of control

## Cc1cc(N)c2cc(NC(=O)CCCCCC(=O)Nc3ccc4nc(C)cc(N)c4c3)ccc2n1
dose: 6.25 mg/kg/injection, schedule: Q01DX009 (ip), vehicle: saline with Tween-80
  T/C: 100 % of control
dose: 12.5 mg/kg/injection, schedule: Q01DX009 (ip), vehicle: saline with Tween-80
  T/C: 110 % of control
dose: 25.0 mg/kg/injection, schedule: Q01DX009 (ip), vehicle: saline with Tween-80
  T/C: 118 % of control

## Oc1ccc(C(c2cc3c(cc2O)OCO3)N2CCNCC2)cc1 (configuration not stated)
[11]
  T/C: 114 % of control
[12]
  T/C: 115 % of control
[13]
  T/C: 113 % of control

## [F][Sn]([F])([c]1ccccc1)[c]1ccccc1
dose: 1.56 mg/kg/injection, schedule: Q01DX009 (ip), vehicle: Klucel (hydroxypropylcellulose) (HPC)
  T/C: 196 % of control

## CCOC(=O)C(C#N)C(=N)C1CC(C)OC1=O (configuration not stated)
[11]
  T/C: 100 % of control
[12]
  T/C: 100 % of control
[13]
  T/C: 98 % of control

## OCCCCCCCCCCCN1CCOCC1
[14]
  T/C: 106 % of control
[9]
  T/C: 98 % of control
[10]
  T/C: 101 % of control

## N#Cc1c(O)c2c(c(O)c1C#N)C(=O)c1ccccc1C2=O
[14]
  T/C: 97 % of control
[9]
  T/C: 95 % of control
[10]
  T/C: 92 % of control

## CCOC(=O)C1(C(=O)OCC)COC(=O)C1
dose: 16.0 mg/kg/injection, schedule: Q01DX009 (ip), vehicle: saline with Tween-80
  T/C: 97 % of control
dose: 32.0 mg/kg/injection, schedule: Q01DX009 (ip), vehicle: saline with Tween-80
  T/C: 109 % of control
dose: 64.0 mg/kg/injection, schedule: Q01DX009 (ip), vehicle: saline with Tween-80
  T/C: 114 % of control
dose: 128.0 mg/kg/injection, schedule: Q01DX009 (ip), vehicle: saline with Tween-80
  T/C: 97 % of control
dose: 256.0 mg/kg/injection, schedule: Q01DX009 (ip), vehicle: saline with Tween-80
  T/C: 106 % of control

## CCC(NC(C)C)C(O)c1ccc(O)c2[nH]c(=O)ccc12 (configuration not stated)
[15]
  T/C: 104 % of control
[16]
  T/C: 99 % of control
[17]
  T/C: 96 % of control

## CCCC(C)C(CC)C(=O)NC(N)=O (configuration not stated)
[18]
  T/C: 101 % of control
[19]
  T/C: 102 % of control
[15]
  T/C: 98 % of control
[16]
  T/C: 101 % of control

## CC1C2COCC2CC2OC21 (configuration not stated)
dose: 6.25 mg/kg/injection, schedule: Q01DX001 (ip), vehicle: saline with Tween-80
  T/C: 109 % of control
dose: 12.5 mg/kg/injection, schedule: Q01DX001 (ip), vehicle: saline with Tween-80
  T/C: 100 % of control
dose: 25.0 mg/kg/injection, schedule: Q01DX001 (ip), vehicle: saline with Tween-80
  T/C: 104 % of control

## c1ccc(-c2cn3ccccc3n2)cc1
[15]
  T/C: 98 % of control
[16]
  T/C: 108 % of control
[17]
  T/C: 117 % of control

## O=C(NS(=O)C1C=CCCC1)OC1CCCCC1c1ccccc1 (configuration not stated)
[14]
  T/C: 99 % of control
[9]
  T/C: 100 % of control
[10]
  T/C: 105 % of control

## COc1cc2cnc3c4cc(OC)c(OC)cc4c(O)cc3c2cc1OC
dose: 3.12 mg/kg/injection, schedule: Q01DX005 (ip), vehicle: Klucel (hydroxypropylcellulose) (HPC)
  T/C: 98 % of control
dose: 6.25 mg/kg/injection, schedule: Q01DX005 (ip), vehicle: Klucel (hydroxypropylcellulose) (HPC)
  T/C: 106 % of control
dose: 12.5 mg/kg/injection, schedule: Q01DX005 (ip), vehicle: Klucel (hydroxypropylcellulose) (HPC)
  T/C: 98 % of control

## Nc1cc(S(=O)(=O)F)ccc1Cl
[5]
  T/C: 100 % of control
[20]
  T/C: 106 % of control

## CC1OC(OCC2OC(Oc3c(-c4ccc(O)c(O)c4)oc4cc(O)cc(O)c4c3=O)C(O)C(O)C2O)C(O)C(O)C1O (configuration not stated)
dose: 6.25 mg/kg/injection, schedule: Q01DX005 (ip), vehicle: saline with Tween-80
  T/C: 95 % of control
dose: 12.5 mg/kg/injection, schedule: Q01DX005 (ip), vehicle: saline with Tween-80
  T/C: 94 % of control
dose: 25.0 mg/kg/injection, schedule: Q01DX005 (ip), vehicle: saline with Tween-80
  T/C: 94 % of control

## CCSC(=Nc1nc2ccc(NC(C)=O)cc2s1)SCC
dose: 6.25 mg/kg/injection, schedule: Q01DX009 (ip), vehicle: Klucel (hydroxypropylcellulose) (HPC)
  T/C: 97 % of control
[18]
  T/C: 101 % of control
[19]
  T/C: 98 % of control

## CCN(C(=S)Nc1cccc(C(F)(F)F)c1)c1ccccc1
[15]
  T/C: 101 % of control
[16]
  T/C: 108 % of control

## O=C(NC(Cc1ccc(Cl)cc1)C(=O)O)c1ccc(Br)cc1 (configuration not stated)
dose: 50.0 mg/kg/injection, schedule: Q01DX005 (ip), vehicle: Klucel (hydroxypropylcellulose) (HPC)
  T/C: 100 % of control
dose: 100.0 mg/kg/injection, schedule: Q01DX005 (ip), vehicle: Klucel (hydroxypropylcellulose) (HPC)
  T/C: 96 % of control
dose: 200.0 mg/kg/injection, schedule: Q01DX005 (ip), vehicle: Klucel (hydroxypropylcellulose) (HPC)
  T/C: 99 % of control

## O=C=Nc1ccc(N=Nc2ccccc2)cc1
dose: 12.5 mg/kg/injection, schedule: Q04DX003 (ip), vehicle: saline with Tween-80
  T/C: 97 % of control
[3]
  T/C: 90 % of control
[4]
  T/C: 90 % of control
[5]
  T/C: 90 % of control and 92 % of control
dose: 150.0 mg/kg/injection, schedule: Q04DX003 (ip), vehicle: saline with Tween-80
  T/C: 92 % of control
dose: 225.0 mg/kg/injection, schedule: Q04DX003 (ip), vehicle: saline with Tween-80
  T/C: 100 % of control
dose: 335.0 mg/kg/injection, schedule: Q04DX003 (ip), vehicle: saline with Tween-80
  T/C: 93 % of control

## C/C=C(\C)C(=O)OC1CC(C)(C)C2C3C(=O)C=C(C)C2C3(C)C1OC(=O)/C(C)=C/C (configuration not stated)
dose: 75.0 mg/kg/injection, schedule: Q01DX001 (ip), vehicle: Klucel (hydroxypropylcellulose) (HPC)
  T/C: 97 % of control
dose: 150.0 mg/kg/injection, schedule: Q01DX001 (ip), vehicle: Klucel (hydroxypropylcellulose) (HPC)
  T/C: 98 % of control
dose: 300.0 mg/kg/injection, schedule: Q01DX001 (ip), vehicle: Klucel (hydroxypropylcellulose) (HPC)
  T/C: 101 % of control

## N=C1N=Nc2nc(C3(c4nc5n(c4O)C(=N)N=N5)Cc4ccccc4C3=O)c(O)n21 (configuration not stated)
[1]
  T/C: 96 % of control
[2]
  T/C: 103 % of control
dose: 240.0 mg/kg/injection, schedule: Q01DX005 (ip), vehicle: saline
  T/C: 108 % of control

## CCCCCN(CCCCC)c1ccc(/C=C/c2ccnc3ccccc23)cc1
[15]
  T/C: 98 % of control
dose: 400.0 mg/kg/injection, schedule: Q01DX009 (ip), vehicle: Klucel (hydroxypropylcellulose) (HPC)
  T/C: 104 % of control

## O=C1c2ccccc2C(=O)N1N1C(=O)c2ccccc2C1=O
[5]
  T/C: 100 % of control
[20]
  T/C: 100 % of control
dose: 400.0 mg/kg/injection, schedule: Q04DX003 (ip), vehicle: saline with Tween-80
  T/C: 100 % of control
